# Patent US12138256B2, “Treatment of cardiopulmonary disorders” (Bayer Aktiengesellschaft, priority 2021, dated 2024)
# Tested on: sGC (cGMP)
# Assay: Phase I, healthy male subjects, 7 days once daily inhalation: cGMP in blood samples (C-4.1)
# Type: in vivo, human
# Experimental: Healthy White male subjects, aged 18 to 45 years and with a body mass index (BMI) above/equal 18.5 and below/equal 29.9 kg/m2 were treated in a clinical pharmacological phase I study on seven days with inhaled once daily doses of 480 μg or 1000 μg or 2000 μg (2 capsules of 1000 μg) (nominal dose) of dry powder formulations of example 2 or Placebo. The subjects inhaled the drug powder from capsules (see under D-1, e.g. tables 22 and 23) inserted into a handheld inhalation device by one deep inhalative breath. The dry powder formulation of the drug is dispersed into the airstream and fine particles are transported into the deep parts of the lung where it is intended to cause a vasodilation of the blood vessels in PH patients for a substantial reduction of increased blood pressure in the central pulmonary blood vessels in PAH patients or other subtypes of PH. This effect cannot be shown in subjects with healthy lungs. In addition inhaled drug causes a dilation of the bronchial airways and thus also improves disease states of lung diseases in PH patients with pathological bronchoconstriction. This effect was measured via bodyplethysmography as reduction of Specific Airway Resistance in healthy subjects. After the deep inhalative breath the subjects hold breath for 2 seconds, so that the dry powder drug condenses from the airstream onto the surface of the deeper lung areas where it is deposited close to its site of intended pharmacological action. The drug dissolutes over the day and equilibrates the lung via lining fluid.
# Drug activity in healthy men was controlled in the healthy subjects by analysing blood samples for cGMP, the immediate product of sGC pharmacological activation prior after the first and after the last drug inhalation of the 7 days treatment in comparison to measurements on the pretreatment day for all doses.
# This prolonged activity in comparison to systemic drug concentration is caused by the mode of administration as inhaled dry powder, that deposits drug in the deeper part of the lung leading to an active drug concentration over 24 h after a once daily inhalation.
# At 10 days after the first treatment, mean cGMP concentrations had returned close to the concentration observed at the pre-dosing day.
smiles,measurement,setting,value
"O=C(O)c1ccc(CCN(CCc2ccccc2OCc2ccc(-c3ccc(C(F)(F)F)cc3)cc2Cl)[C@H]2CCCc3nc(C(=O)O)ccc32)cc1 [example 2, (5S)-{[2-(4-Carboxyphenyl)ethyl][2-(2-{[3-chloro-4′-(trifluoromethyl)biphenyl-4-yl]methoxy}phenyl)-ethyl]amino}-5,6,7,8-tetrahydroquinoline-2-carboxylic acid]",cyclic guanosine monophosphate changes from baseline,"480 μg once daily inhaled, 0 D 02 H 00 M",1.73 ± 0.82 nmol/L
same,cyclic guanosine monophosphate changes from baseline,"480 μg once daily inhaled, 0 D 04 H 00 M",3.04 ± 1.39 nmol/L
same,cyclic guanosine monophosphate changes from baseline,"480 μg once daily inhaled, 0 D 06 H 00 M",3.33 ± 1.39 nmol/L
same,cyclic guanosine monophosphate changes from baseline,"480 μg once daily inhaled, 0 D 08 H 00 M",2.94 ± 1.38 nmol/L
same,cyclic guanosine monophosphate changes from baseline,"480 μg once daily inhaled, 0 D 12 H 00 M",2.10 ± 1.18 nmol/L
same,cyclic guanosine monophosphate changes from baseline,"480 μg once daily inhaled, 0 D 15 H 00 M",1.53 ± 1.50 nmol/L
same,cyclic guanosine monophosphate changes from baseline,"480 μg once daily inhaled, 1 D 00 H 00 M",0.84 ± 0.89 nmol/L
same,cyclic guanosine monophosphate changes from baseline,"480 μg once daily inhaled, 2 D 00 H 00 M",0.74 ± 1.59 nmol/L
same,cyclic guanosine monophosphate changes from baseline,"480 μg once daily inhaled, 3 D 00 H 00 M",1.00 ± 1.92 nmol/L
same,cyclic guanosine monophosphate changes from baseline,"480 μg once daily inhaled, 4 D 00 H 00 M",1.46 ± 1.24 nmol/L
same,cyclic guanosine monophosphate changes from baseline,"480 μg once daily inhaled, 5 D 00 H 00 M",1.50 ± 0.98 nmol/L
same,cyclic guanosine monophosphate changes from baseline,"480 μg once daily inhaled, 6 D 00 H 00 M",1.92 ± 1.21 nmol/L
same,cyclic guanosine monophosphate changes from baseline,"480 μg once daily inhaled, 7 D 00 H 00 M",1.68 ± 0.85 nmol/L
same,cyclic guanosine monophosphate changes from baseline,"480 μg once daily inhaled, 7 D 02 H 00 M",4.22 ± 2.29 nmol/L
same,cyclic guanosine monophosphate changes from baseline,"480 μg once daily inhaled, 7 D 04 H 00 M",5.39 ± 2.34 nmol/L
same,cyclic guanosine monophosphate changes from baseline,"480 μg once daily inhaled, 7 D 06 H 00 M",6.44 ± 2.26 nmol/L
same,cyclic guanosine monophosphate changes from baseline,"480 μg once daily inhaled, 7 D 08 H 00 M",5.19 ± 1.64 nmol/L
same,cyclic guanosine monophosphate changes from baseline,"480 μg once daily inhaled, 7 D 12 H 00 M",3.71 ± 1.79 nmol/L
same,cyclic guanosine monophosphate changes from baseline,"480 μg once daily inhaled, 7 D 15 H 00 M",3.04 ± 2.09 nmol/L
same,cyclic guanosine monophosphate changes from baseline,"480 μg once daily inhaled, 8 D 00 H 00 M",1.69 ± 2.65 nmol/L
same,cyclic guanosine monophosphate changes from baseline,"480 μg once daily inhaled, 8 D 12 H 00 M",0.69 ± 1.53 nmol/L
same,cyclic guanosine monophosphate changes from baseline,"480 μg once daily inhaled, 9 D 00 H 00 M",0.13 ± 1.97 nmol/L
same,cyclic guanosine monophosphate changes from baseline,"480 μg once daily inhaled, 9 D 12 H 00 M",1.10 ± 1.01 nmol/L
same,cyclic guanosine monophosphate changes from baseline,"480 μg once daily inhaled, 10 D 00 H 00 M",-0.00 ± 0.64 nmol/L
same,cyclic guanosine monophosphate changes from baseline,"480 μg, 0 D 00 H 00 M",0.11 ± 1.10 nmol/L
same,"cGMP, mean ± SD","480 μg, 0 D 00 H 00 M (baseline)",5.51 ± 1.00 nmol/L
same,"cGMP, mean ± SD","480 μg, 0 D 02 H 00 M",7.24 ± 1.25 nmol/L
same,"cGMP, mean ± SD","480 μg, 0 D 04 H 00 M",8.56 ± 1.45 nmol/L
same,"cGMP, mean ± SD","480 μg, 0 D 06 H 00 M",8.84 ± 1.35 nmol/L
same,"cGMP, mean ± SD","480 μg, 0 D 08 H 00 M",8.46 ± 1.59 nmol/L
same,"cGMP, mean ± SD","480 μg, 0 D 12 H 00 M",7.61 ± 1.01 nmol/L
same,"cGMP, mean ± SD","480 μg, 0 D 15 H 00 M",7.04 ± 1.50 nmol/L
same,"cGMP, mean ± SD","480 μg, 1 D 00 H 00 M",6.36 ± 1.10 nmol/L
same,"cGMP, mean ± SD","480 μg, 2 D 00 H 00 M",6.26 ± 2.17 nmol/L
same,"cGMP, mean ± SD","480 μg, 3 D 00 H 00 M (trough)",6.51 ± 2.62 nmol/L
same,"cGMP, mean ± SD","480 μg, 4 D 00 H 00 M (trough)",6.97 ± 1.96 nmol/L
same,"cGMP, mean ± SD","480 μg, 5 D 00 H 00 M (trough)",7.01 ± 1.72 nmol/L
same,"cGMP, mean ± SD","480 μg, 6 D 00 H 00 M (trough)",7.43 ± 1.69 nmol/L
same,"cGMP, mean ± SD","480 μg, 7 D 00 H 00 M (trough)",7.19 ± 1.47 nmol/L
same,"cGMP, mean ± SD","480 μg, 7 D 02 H 00 M",9.73 ± 3.00 nmol/L
same,"cGMP, mean ± SD","480 μg, 7 D 04 H 00 M",10.90 ± 3.12 nmol/L
same,"cGMP, mean ± SD","480 μg, 7 D 06 H 00 M",11.96 ± 2.80 nmol/L
same,"cGMP, mean ± SD","480 μg, 7 D 08 H 00 M",10.70 ± 2.27 nmol/L
same,"cGMP, mean ± SD","480 μg, 7 D 12 H 00 M",9.22 ± 2.37 nmol/L
same,"cGMP, mean ± SD","480 μg, 7 D 15 H 00 M",8.56 ± 2.80 nmol/L
same,"cGMP, mean ± SD","480 μg, 8 D 00 H 00 M",7.20 ± 3.23 nmol/L
same,"cGMP, mean ± SD","480 μg, 8 D 12 H 00 M",6.20 ± 2.00 nmol/L
same,"cGMP, mean ± SD","480 μg, 9 D 00 H 00 M",5.64 ± 2.53 nmol/L
same,"cGMP, mean ± SD","480 μg, 9 D 12 H 00 M",6.61 ± 1.80 nmol/L
same,"cGMP, mean ± SD","480 μg, 10 D 00 H 00 M",5.51 ± 1.39 nmol/L
same,"cGMP, mean ± SD","480 μg, −0 D 09 H 00 M (baseline)",5.60 ± 1.08 nmol/L
same,cyclic guanosine monophosphate changes from baseline,"480 μg, −0 D 09 H 00 M (pretreatment day)",0.20 ± 1.59 nmol/L
same,"cGMP, mean ± SD","480 μg, −0 D 12 H 00 M (baseline)",5.62 ± 1.26 nmol/L
same,cyclic guanosine monophosphate changes from baseline,"480 μg, −0 D 12 H 00 M (pretreatment day)",0.22 ± 1.17 nmol/L
same,"cGMP, mean ± SD","480 μg, −0 D 16 H 00 M (baseline)",5.81 ± 1.09 nmol/L
same,cyclic guanosine monophosphate changes from baseline,"480 μg, −0 D 16 H 00 M (pretreatment day)",0.41 ± 0.96 nmol/L
same,"cGMP, mean ± SD","480 μg, −0 D 18 H 00 M (baseline)",5.61 ± 0.71 nmol/L
same,cyclic guanosine monophosphate changes from baseline,"480 μg, −0 D 18 H 00 M (pretreatment day)",0.21 ± 1.74 nmol/L
same,"cGMP, mean ± SD","480 μg, −0 D 20 H 00 M (baseline)",5.92 ± 0.83 nmol/L
same,cyclic guanosine monophosphate changes from baseline,"480 μg, −0 D 20 H 00 M (pretreatment day)",0.52 ± 0.95 nmol/L
same,"cGMP, mean ± SD","480 μg, −0 D 22 H 00 M (baseline)",6.57 ± 1.22 nmol/L
same,cyclic guanosine monophosphate changes from baseline,"480 μg, −0 D 22 H 00 M (pretreatment day)",1.17 ± 1.00 nmol/L
same,"cGMP, mean ± SD","480 μg, −1 D 02 H 00 M (baseline)",5.40 ± 1.41 nmol/L
same,cyclic guanosine monophosphate changes from baseline,"1000 μg once daily inhaled, 0 D 02 H 00 M",3.26 ± 2.04 nmol/L
same,cyclic guanosine monophosphate changes from baseline,"1000 μg once daily inhaled, 0 D 04 H 00 M",5.64 ± 2.54 nmol/L
same,cyclic guanosine monophosphate changes from baseline,"1000 μg once daily inhaled, 0 D 06 H 00 M",6.78 ± 2.79 nmol/L
same,cyclic guanosine monophosphate changes from baseline,"1000 μg once daily inhaled, 0 D 08 H 00 M",5.94 ± 2.65 nmol/L
same,cyclic guanosine monophosphate changes from baseline,"1000 μg once daily inhaled, 0 D 12 H 00 M",4.86 ± 2.91 nmol/L
same,cyclic guanosine monophosphate changes from baseline,"1000 μg once daily inhaled, 0 D 15 H 00 M",3.70 ± 2.59 nmol/L
same,cyclic guanosine monophosphate changes from baseline,"1000 μg once daily inhaled, 1 D 00 H 00 M",1.26 ± 1.98 nmol/L
same,cyclic guanosine monophosphate changes from baseline,"1000 μg once daily inhaled, 2 D 00 H 00 M",0.33 ± 1.99 nmol/L
same,cyclic guanosine monophosphate changes from baseline,"1000 μg once daily inhaled, 3 D 00 H 00 M",2.31 ± 2.68 nmol/L
same,cyclic guanosine monophosphate changes from baseline,"1000 μg once daily inhaled, 4 D 00 H 00 M",2.86 ± 2.63 nmol/L
same,cyclic guanosine monophosphate changes from baseline,"1000 μg once daily inhaled, 5 D 00 H 00 M",3.59 ± 2.51 nmol/L
same,cyclic guanosine monophosphate changes from baseline,"1000 μg once daily inhaled, 6 D 00 H 00 M",4.32 ± 2.82 nmol/L
same,cyclic guanosine monophosphate changes from baseline,"1000 μg once daily inhaled, 7 D 00 H 00 M",4.74 ± 2.98 nmol/L
same,cyclic guanosine monophosphate changes from baseline,"1000 μg once daily inhaled, 7 D 02 H 00 M",6.93 ± 2.99 nmol/L
same,cyclic guanosine monophosphate changes from baseline,"1000 μg once daily inhaled, 7 D 04 H 00 M",10.84 ± 2.91 nmol/L
same,cyclic guanosine monophosphate changes from baseline,"1000 μg once daily inhaled, 7 D 06 H 00 M",11.79 ± 3.70 nmol/L
same,cyclic guanosine monophosphate changes from baseline,"1000 μg once daily inhaled, 7 D 08 H 00 M",11.00 ± 4.58 nmol/L
same,cyclic guanosine monophosphate changes from baseline,"1000 μg once daily inhaled, 7 D 12 H 00 M",9.19 ± 5.26 nmol/L
same,cyclic guanosine monophosphate changes from baseline,"1000 μg once daily inhaled, 7 D 15 H 00 M",8.00 ± 4.41 nmol/L
same,cyclic guanosine monophosphate changes from baseline,"1000 μg once daily inhaled, 8 D 00 H 00 M",4.47 ± 3.81 nmol/L
same,cyclic guanosine monophosphate changes from baseline,"1000 μg once daily inhaled, 8 D 12 H 00 M",2.30 ± 3.05 nmol/L
same,cyclic guanosine monophosphate changes from baseline,"1000 μg once daily inhaled, 9 D 00 H 00 M",1.38 ± 2.59 nmol/L
same,cyclic guanosine monophosphate changes from baseline,"1000 μg once daily inhaled, 9 D 12 H 00 M",1.02 ± 2.24 nmol/L
same,cyclic guanosine monophosphate changes from baseline,"1000 μg once daily inhaled, 10 D 00 H 00 M",1.42 ± 2.87 nmol/L
same,cyclic guanosine monophosphate changes from baseline,"1000 μg, 0 D 00 H 00 M",-0.11 ± 1.62 nmol/L
same,"cGMP, mean ± SD","1000 μg, 0 D 00 H 00 M (baseline)",4.91 ± 1.27 nmol/L
same,"cGMP, mean ± SD","1000 μg, 0 D 02 H 00 M",8.17 ± 1.07 nmol/L
same,"cGMP, mean ± SD","1000 μg, 0 D 04 H 00 M",10.56 ± 1.47 nmol/L
same,"cGMP, mean ± SD","1000 μg, 0 D 06 H 00 M",11.69 ± 1.86 nmol/L
same,"cGMP, mean ± SD","1000 μg, 0 D 08 H 00 M",10.86 ± 1.66 nmol/L
same,"cGMP, mean ± SD","1000 μg, 0 D 12 H 00 M",9.77 ± 2.11 nmol/L
same,"cGMP, mean ± SD","1000 μg, 0 D 15 H 00 M",8.61 ± 1.63 nmol/L
same,"cGMP, mean ± SD","1000 μg, 1 D 00 H 00 M",6.17 ± 1.05 nmol/L
same,"cGMP, mean ± SD","1000 μg, 2 D 00 H 00 M",5.24 ± 1.28 nmol/L
same,"cGMP, mean ± SD","1000 μg, 3 D 00 H 00 M (trough)",7.22 ± 2.04 nmol/L
same,"cGMP, mean ± SD","1000 μg, 4 D 00 H 00 M (trough)",7.77 ± 1.87 nmol/L
